Test results reported in patent publication US8283473B2, “Platinum complex compound and utilization of the same” (Yakult Honsha Co., Ltd, priority 2008, dated 2012).
Like-named read-outs stand apart in the source and are kept apart here.

Tested on: H460 non-small cell lung cancer cells
Experiment: In vitro cytotoxicity (inhibitory activity on cancer cell proliferation), MTT formazan absorbance assay
Format: cell-based
Conditions: 24 hours incubation at 37° C., absorbance at 550 nm, read-out: IC50 value of platinum complex compounds for H460 non-small cell lung cancer cells
Protocol: <Investigation of the In Vitro Cytotoxicity (Inhibitory Activity on Cancer Cell Proliferation) for H460 Non-Small Cell Lung Cancer Cells>
On the day prior to the day of agent addition, H460 non-small cell lung cancer cells were plated onto 24-well flatbottom microplates at 12,000 to 20,000 cells/well. An aqueous solution was prepared for each sample (refer to the sample numbers in Table 1) by dissolving the sample in Q-H2O water to a concentration of 100 μM. These aqueous solutions were diluted to provide solutions with various concentrations, and 1 mL of the particular dilution was introduced into each well. After incubation of the microplate for 24 hours at 37° C., […] a 2,5-diphenyl-3-(4,5-dimethylthiazol-2-yl)tetrazolium bromide (MIT) solution (5 mg/mL) was added to each well and incubation was continued for an additional 4 hours at 37° C. 200 μL dimethyl sulfoxide (DMSO) was added to each well in order to dissolve the formazan produced and precipitated as a result of reduction of the MIT. The absorbance at 550 nm of each well was measured using a microplate reader.
The absorbance of each well was measured three times and each experiment was repeated at least three times. The IC50 value was calculated as the concentration that provided a 50% formazan production with reference to the control (no agent addition).

Row | Molecule | IC50 (Table 2, same procedure) [µM] | IC50 (Table 1, then 4 hours with tetrazolium dye) [µM]
1 | O=[N+]([O-])O.O=[N+]([O-])[O-].[NH2][Pt]1([NH2])[O][Pt]([NH2])([NH2])[n+]2ncc[n]21 [sample 9, [{cis-Pt(NH3)2}2(μ-OH)(μ-1,2,3-triazolato-N1,N2)](NO3)2] | 62 | 
2 | N.N.[Cl][Pt][Cl] [sample 3, cis-diamminedichloridoplatinum(II)] | 23 | 23
3 | [{cis-Pt(NH3)2}2(μ-OH)(μ-5-methyltetrazolato-N2,N3)](NO3)2 [sample 6] | 20 | 
4 | [{cis-Pt(NH3)2}2(μ-OH)(μ-tetrazolato-N1,N2)](ClO4)2 [sample 4] | 21 | 
5 | [{cis-Pt(NH3)2}2(μ-OH)(μ-tetrazolato-5-ethylacetate-N2,N3)](NO3)2 [sample 7] | 22 | 
6 | [{cis-Pt(NH3)2}2(μ-OH)(μ-tetrazolato-N2,N3)](ClO4)2 [sample 5] | 8.3 | 
7 | [{cis-Pt(NH3)2}2(μ-OH)(μ-pyrazolato)](NO3)2 [sample 8] | > 100 | 
